In brackets after ≈: the same amount, converted by molar mass. Read-outs that look alike come from different tables or passages of the source.

These results are taken from paper PMC524486, “Branched-chain amino acid aminotransferase and methionine formation in Mycobacterium tuberculosis” (BMC Microbiology, 2004).

The subject of experiment [1] is M. tuberculosis branched-chain aminotransferase. Type of experiment: biochemical, Mycobacterium tuberculosis H37Rv. The conditions noted are these: for amino donor activity for Met formation from KMTB: 2 mM individual amino acid, 1 mM KMTB, 30 min at 37°C (Figure 5); for Km: read-out: Apparent Km.
For experiment [2], the system named is M. tuberculosis. As to the kind of experiment: In vitro growth inhibition, microtitre doubling dilution, A650 nm. Type of experiment: cell-based, M. tuberculosis H37Rv.
Another experiment relates to M. marinum. The experiment is described as above. Type of experiment: cell-based, M. marinum Aronson (ATCC927).
Another experiment concerns the target M. tuberculosis BCAT (Mycobacterium tuberculosis, UniProt P9WQ75). The experiment can be described thus: Inhibition of BCAT-catalysed Met formation by aminooxy compounds. The conditions noted are these: for inhibition of Met formation, ranking at 0.1 mM / inhibition of Met formation: 2.0 mM leucine; for inhibition of Met formation, ranking at 0.1 mM: 0.1 mM inhibitor (Figure 6); for type of inhibition: fit to competitive, uncompetitive and mixed inhibition equations; for inhibition of Met formation: 0.1 or 1.0 mM inhibitor (Figure 6). In kind it is biochemical, Mycobacterium tuberculosis H37Rv. On the procedure:
Aminotransferase activities were assayed by an HPLC method. 5 or 10 μl of recombinant enzyme was added to 100 μl of substrate mix (100 mM PO4 (pH 7.4)/50 μM PLP/various concentrations of amino acid/various concentrations of keto acid) and incubated for 30 min at 37°C. The samples were then stored at -20°C until analysis by HPLC. All samples were analysed by pre-column derivatisation and reverse-phase HPLC. 10 μl of sample was mixed with 50 μl of 400 mM borate pH 10.5 and then with 10 μl of 10 mg/ml o-phthalaldehyde/12 μl/ml mercaptopropionate/400 mM borate pH 10.5 prior to the injection of 7.0 μl onto a 2.1 × 200 mm ODS-AA column (Agilent; Mississauga, ON, Canada). The column was eluted using 2.72 mg/ml sodium acetate pH 7.2/0.018% v/v triethylamine/0.3% v/v tetrahydrofuran as Buffer A and 2.72 mg/ml sodium acetate pH 7.2/40% v/v methanol/40% v/v acetonitrile as Buffer B with a linear gradient of 0 – 17% B over 16 min followed by a linear gradient of 17–100% B over 1 min and 6.0 min at 100% B. The flow rate was 0.45 ml/min from 0 – 16 min and 0.80 ml/min from 17–30 min. The elution of derivatised amino acids was monitored at 338 nm and fluorometrically with an excitation of 338 nm and an emission of 450 nm. All separations were performed on an Agilent 1100 HPLC equipped with an autosampler, variable wavelength ultraviolet/visible spectrophotometric detector, fluorescence detector, and Chemstation operating system.
Initial inhibition studies screened 13 aminooxy compounds against M. tuberculosis BCAT using 2.0 mM Leu/1.0 mM KMTB/0.1 or 1.0 mM inhibitor in the enzyme incubation. […] These reactions involved 0.5, 1.0, 2.0, or 3.0 mM Leu and 1.0 mM KMTB in the reaction mixture together with 0, 25, 50, 75, 100, 150, 200 μM of inhibitor. The Ki values were determined by non-linear curve fitting with the Scientist software programmed with competitive, uncompetitive, and mixed inhibition equations [25].

The test system of experiment [3] is M. tuberculosis. Particulars: older study, other medium, cited from earlier work.
Setting [4] is: varying substrate, 10 mM cosubstrate KMTB, Met formation.
Setting [5] is: M. tuberculosis, n = 6, 14 days at 37°C, Middlebrook 7H9.
The mark [6] stands for this setting: M. tuberculosis, n = 6, 14 days at 37°C, Middlebrook 7H9, read-out: IC50.
[7] abbreviates: M. marinum, n = 8, 8 days at 30°C, Middlebrook 7H9.
Setting [8] is: M. marinum, n = 8, 8 days at 30°C, Middlebrook 7H9, read-out: IC50.
Where [9] appears, read: 0.5-3.0 mM Leu, 1.0 mM KMTB, 0-200 μM inhibitor.
Setting [10] is: read-out: Kic (competitive component of mixed-type inhibition), 0.5-3.0 mM Leu, 1.0 mM KMTB, 0-200 μM inhibitor.
[11] abbreviates: varying substrate, 10 mM cosubstrate KG, Glu formation.
Where [12] appears, read: varying keto acid substrate, 10 mM cosubstrate Leu.
Setting [13] is: Mycobacterium tuberculosis, 336 h.

M. tuberculosis BCAT, sequence (P9WQ75 whole entry, looked up): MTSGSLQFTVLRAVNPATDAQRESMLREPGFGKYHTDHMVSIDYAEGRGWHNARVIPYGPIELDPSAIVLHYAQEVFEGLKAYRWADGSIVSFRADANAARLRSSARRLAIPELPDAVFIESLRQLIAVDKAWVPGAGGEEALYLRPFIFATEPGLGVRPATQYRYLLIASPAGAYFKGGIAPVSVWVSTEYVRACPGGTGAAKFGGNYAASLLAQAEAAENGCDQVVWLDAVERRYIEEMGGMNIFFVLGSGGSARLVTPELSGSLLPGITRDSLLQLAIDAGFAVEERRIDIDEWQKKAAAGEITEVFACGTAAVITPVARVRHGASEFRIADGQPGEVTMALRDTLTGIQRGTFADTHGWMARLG

`N[C@@H](Cc1ccccc1)C(=O)O` [Phe, phenylalanine]: the “amino donor activity for Met formation from KMTB” value (from here on “amino donor activity”) in experiment [1] is “also active as amino donors”. For the same compound, in experiment [1] (setting [4]), the “Apparent Vmax” value worked out at 2.17 ± 0.22 μmol/min/mg protein and the Km – broadly, the substrate concentration at which the rate is half of its maximum – amounted to 7440 ± 1400 µM.
`C=CCON` [O-allylhydroxylamine]: the MIC – broadly, the smallest concentration in the dilution series that meets the test's criterion for growth inhibition – is 156 µM in the experiment with M. tuberculosis [2] (M. tuberculosis, as stated in text (present data), read-out: MIC); 156 µM with M. tuberculosis [2] (setting [5]); 78 µM against M. marinum (setting [7]); 78 µM in the experiment with M. marinum (M. marinum, read-out: MIC). For the same compound, the IC50 (in general, the concentration that gives 50% inhibition) stood at 39.2 ± 2.01 µM in the experiment on M. tuberculosis [2] (setting [6]) and 8.49 ± 1.96 µM with M. marinum (setting [8]). Moreover, the “inhibition of Met formation, ranking at 0.1 mM” value (“inhibition … at 0.1 mM” for short) against M. tuberculosis BCAT (1.0 mM KMTB) is “most active”. Further, the “Kiu (uncompetitive component of mixed-type inhibition)” value at M. tuberculosis BCAT (setting [9]) is over 200 µM. In addition, the type of inhibition entry at M. tuberculosis BCAT is given as “mixed-type inhibition”. Moreover, the Ki at M. tuberculosis BCAT (setting [10]) was 21.6 ± 11.1 µM.
Consider `[H]/N=C(/N)N[C@H]1[C@H](O)[C@@H](O)[C@H](O[C@@H]2O[C@@H](C)[C@](O)(C=O)[C@H]2O[C@@H]2O[C@@H](CO)[C@H](O)[C@@H](O)[C@@H]2NC)[C@@H](N/C(N)=N\[H])[C@@H]1O` [streptomycin], for which the MIC with M. tuberculosis [2] (Mycobacterium tuberculosis, M. tuberculosis, read-out: MIC) is 2 µg/mL; with M. marinum (Mycobacterium marinum, M. marinum, read-out: MIC), 8 µg/mL.
Consider `NOCc1ccccc1` [O-benzylhydroxylamine], for which the MIC against M. tuberculosis [2] (setting [5]) and against M. marinum (setting [7]) was 1250 µM each time. Besides, the IC50 with M. tuberculosis [2] (setting [6]) stood at 468 ± 62.8 µM; with M. marinum (setting [8]), 411 ± 67.1 µM. The “inhibition … at 0.1 mM” value against M. tuberculosis BCAT (1.0 mM KMTB) is reported as “most active”. In addition, the “Kiu (uncompetitive component of mixed-type inhibition)” value on M. tuberculosis BCAT (setting [9]) is 84.08 ± 31.91 µM. In addition, the type of inhibition result at M. tuberculosis BCAT is recorded as “mixed-type inhibition”. Moreover, the Ki at M. tuberculosis BCAT (setting [10]) was found to be 8.2 ± 2.56 µM.
With `CC(C)[C@H](N)C(=O)O` [Val, valine], the “amino donor activity” value in experiment [1] was “most effective substrates”. Moreover, in experiment [1] (setting [11]), the “Apparent Vmax” value was 11.82 ± 0.80 μmol/min/mg protein and the Km was determined as 5790 ± 990 µM. Also, in experiment [1] (setting [4]), the “Apparent Vmax” value is given as 2.58 ± 0.41 μmol/min/mg protein and the Km was 1770 ± 860 µM.
`NOCC(=O)O` [carboxymethoxylamine]: the IC50 in the experiment on M. tuberculosis [2] (Mycobacterium tuberculosis, 336 h, M. tuberculosis, n = 6, 14 days at 37°C, Middlebrook 7H9, read-out: IC50) was 71 ± 7.83 µM; in the experiment on M. marinum (Mycobacterium marinum, 192 h, M. marinum, n = 8, 8 days at 30°C, Middlebrook 7H9, read-out: IC50) it was 89.3 ± 7.65 µM. Besides, the MIC with M. tuberculosis [2] (Mycobacterium tuberculosis, 336 h, M. tuberculosis, n = 6, 14 days at 37°C, Middlebrook 7H9, read-out: MIC) is 313 µM; in the experiment on M. tuberculosis [2] (Mycobacterium tuberculosis, M. tuberculosis, as stated in text (present data), read-out: MIC), 313 µM; in the experiment on M. marinum (Mycobacterium marinum, 192 h, M. marinum, n = 8, 8 days at 30°C, Middlebrook 7H9, read-out: MIC), 313 µM; with M. tuberculosis [3] (ref 35), 910 µM (≈ 82.9 µg/mL); in the experiment on M. tuberculosis [3] (ref 37), 170 µM (≈ 15.5 µg/mL). On M. tuberculosis BCAT, this compound had a Ki of 21 ± 7.27 µM. Besides, the “inhibition … at 0.1 mM” value on M. tuberculosis BCAT (1.0 mM KMTB) is recorded as “most active”. The “Kiu (uncompetitive component of mixed-type inhibition)” value on M. tuberculosis BCAT (setting [9]) was 142.42 ± 69.76 µM. Also, the type of inhibition entry on M. tuberculosis BCAT is reported as “mixed-type inhibition”.
Consider `CC(C)C[C@H](N)C(=O)O` [Leu, leucine], for which the “amino donor activity” value in experiment [1] is “most effective substrates”. For the same compound, in experiment [1] (setting [11]), the “Apparent Vmax” value is given as 13.44 ± 0.84 μmol/min/mg protein and the Km came out at 6020 ± 940 µM. Moreover, in experiment [1] (setting [4]), the “Apparent Vmax” value is 3.65 ± 0.43 μmol/min/mg protein and the Km was 2500 ± 900 µM.
Take `O=C(O)CCC(=O)C(=O)O` [KG, ketoglutarate]: in experiment [1] (setting [12]), the “Apparent Vmax” value is reported as 12.80 ± 1.12 μmol/min/mg protein and the Km turned out to be 6950 ± 1440 µM.
In the case of `N[C@@H](Cc1c[nH]c2ccccc12)C(=O)O` [tryptophan], the “amino donor activity” value in experiment [1] was “much lesser ability to transaminate KMTB”.
`C[Si](C)(C)ON` [O-trimethylsilylhydroxylamine]: at M. tuberculosis BCAT (1.0 mM KMTB), the “inhibition of Met formation” value is reported as “With the exception of O-trimethylsilylhydroxylamine, all of the compounds inhibited Met formation to some extent”.
As for `CSCCC(=O)C(=O)O` [KMTB, ketomethiobutyrate], in experiment [1] (setting [12]), the “Apparent Vmax” value came to 4.22 ± 0.72 μmol/min/mg protein and the Km is 4200 ± 1790 µM.
`N[C@@H](Cc1ccc(O)cc1)C(=O)O` [Tyrosine]: the “amino donor activity” value in experiment [1] is reported as “much lesser ability to transaminate KMTB”.
On to `NOCC[C@H](N)C(=O)O` [canaline], for which the half-inhibitory concentration (IC50) in the experiment on M. tuberculosis [2] (setting [13]) was determined as 273 ± 14.6 µM; in the experiment on M. marinum (Mycobacterium marinum, 192 h) it was 335 ± 13.6 µM. Further, the MIC against M. tuberculosis [2] (setting [13]) was 1250 µM; in the experiment on M. marinum (Mycobacterium marinum, 192 h), 1250 µM. In addition, the “inhibition of Met formation” value against M. tuberculosis BCAT (1.0 mM KMTB) is “not a particularly good inhibitor”.
In the case of `CC[C@H](C)[C@H](N)C(=O)O` [Ile, Isoleucine], in experiment [1], the “amino donor activity” value was “most effective substrates”. Besides, the “Apparent Vmax” value is recorded as 14.35 ± 1.08 μmol/min/mg protein in experiment [1] (setting [11]) and 4.28 ± 0.32 μmol/min/mg protein in experiment [1] (setting [4]). Besides, the Km in experiment [1] (setting [11]) is 6160 ± 1140 µM; in experiment [1] (setting [4]), 2850 ± 560 µM.
As for `CC(C)(C)ON` [O-(t-butyl)hydroxylamine], the MIC in the experiment on M. tuberculosis [2] (setting [5]) and with M. marinum (setting [7]) was 10000 µM throughout. Besides, the IC50 came to 131 ± 23.1 µM in the experiment with M. tuberculosis [2] (setting [6]) and 43.2 ± 10.5 µM with M. marinum (setting [8]). Moreover, the “inhibition … at 0.1 mM” value at M. tuberculosis BCAT (1.0 mM KMTB) is given as “most active”. Also, the “Kiu (uncompetitive component of mixed-type inhibition)” value at M. tuberculosis BCAT (setting [9]) was determined as 85.60 ± 44.79 µM. Further, the type of inhibition entry at M. tuberculosis BCAT is recorded as “mixed-type inhibition”. The Ki at M. tuberculosis BCAT (setting [10]) amounted to 11 ± 2.76 µM.
For `N[C@@H](CCC(=O)O)C(=O)O` [Glu, glutamate], the “amino donor activity” value in experiment [1] was “also active as amino donors”. Also, in experiment [1] (setting [4]), the “Apparent Vmax” value amounted to 5.70 ± 1.20 μmol/min/mg protein and the Km was 9530 ± 3430 µM.
